From EPA's ToxValDB 9.5 (doi:10.2903/j.efsa.2016.4605) come the findings set out here.

One data set has as its system Daphnia magna. The settings on record: chronic/long-term.
Another data set deals with Folsomia candida. The settings on record: chronic/long-term; reproduction.
A further data set deals with Hypoaspis aculeifer. The settings on record: chronic/long-term; reproduction.
The next data set has as its system Mus musculus. The settings on record: chronic; histopathology: neoplastic.
The test system of another data set is Oncorhynchus mykiss. The settings on record: for LC50: acute, mortality; for NOEC: chronic/long-term.
Another data set relates to Tagia sp. The settings on record: chronic/long-term; reproduction.
The next data set has as its system Apis mellifera. The settings on record: acute, mortality.
Another data set has as its system Rattus norvegicus. The settings on record: for LD50: acute, oral, mortality.
The next data set concerns Typhlodromus pyri. Put plainly: LR50; higher = less toxic. The settings on record: not reported; mortality.
The mark [1] stands for this setting: duration: 21 days, reproduction.

Consider `CC1CNC(=O)N1` (centres undefined) [4-Methyl-2-imidazolidinone], for which the NOEC was 100 mg/L in the data set with Daphnia magna (setting [1]); 90 mg/kg in the data set on Folsomia candida; at least 100 mg/kg in the data set on Hypoaspis aculeifer; 2 mg/L in the data set with Oncorhynchus mykiss (duration: 63 days, growth); at least 1000 mg/kg with Tagia sp.. Besides, the NOAEL (as a rule, the highest tested level that showed no adverse finding) in the data set on Mus musculus stood at 8 mg/kg-day. In addition, the LC50 (usually the concentration that kills 50% of the test population) in the data set on Oncorhynchus mykiss (duration: 96 hours) is over 100 µg/mL.
In the case of `CC(CNC(=S)[S-])NC(=S)[S-].[Zn+2]` (centres undefined) [Propineb], the LD50 is over 100 µg/piece in the data set on Apis mellifera (dermal); over 100 µg/piece with Apis mellifera (oral, unspecified); over 5000 mg/kg-day with Coturnix japonica (acute, oral, mortality); over 2000 mg/kg-day with Rattus norvegicus. The NOAEL with Coturnix japonica (chronic) is 64.7 mg/kg-day; in the data set with Rattus norvegicus (chronic, M, organ weight) it was 2.5 mg/kg-day; in the data set with Rattus norvegicus (developmental, development), 3 mg/kg-day; in the data set on Rattus norvegicus (reproduction developmental, body weight), 3 mg/kg-day; with Rattus norvegicus (subchronic, F, body weight), 9.36 mg/kg-day. The NOEC is 0.015 mg/L in the data set on Daphnia magna (setting [1]); 0.48 mg/L in the data set on Daphnia magna (duration: 35 days, other); 39.1 mg/kg in the data set on Folsomia candida; 39.1 mg/kg with Hypoaspis aculeifer; over 0.6 mg/L in the data set with Oncorhynchus mykiss (duration: 28 days, other); 0.0823 mg/L with Oncorhynchus mykiss (growth). Moreover, the NOEC with Tagia sp. was 38.7 mg/kg. This molecule showed an LC50 in the data set with Oncorhynchus mykiss (duration: 96 hours) of 0.329 µg/mL. Further, the LR50 in the data set with Typhlodromus pyri was 5.6 g/ha.
As to `CC1CNC(=S)N1` (centres undefined) [4-Methylimidazolidine-2-thione], the NOEC in the data set with Daphnia magna (setting [1]) is 3.2 mg/L; with Folsomia candida it was 9 mg/kg; in the data set with Hypoaspis aculeifer, at least 100 mg/kg; in the data set on Oncorhynchus mykiss (duration: 28 days, growth) it was 102 mg/L; in the data set with Tagia sp., 178 mg/kg. The molecule further had an NOAEL in the data set with Mus musculus of 0.16 mg/kg-day. In addition, in the data set on Oncorhynchus mykiss, the LC50 is over 100 µg/mL. The LD50 in the data set with Rattus norvegicus amounted to 795 mg/kg-day.
Regarding `CC1CN2C(=S)SSC2=N1` (centres undefined) [6-Methyl-5,6-dihydroimidazo[2,1-C][1,2,4]dithiazole-3-thione], the NOAEL in the data set on Rattus norvegicus (short-term, duration: 28 days, neurology) stood at 0.466 mg/kg-day.
